Patent publication US20260015360A1 (MOMA Therapeutics, Inc., priority 2023, published 2026)

target: T1, biotinylated Avi-POLΘ[2-894] (Homo sapiens, UniProt O75417); assay: ATPase assay (ADP-Glo): POLΘ-mediated ATP hydrolysis; details: read-out: Biochemical ATPase ADPGlo IC50
T1 construct: 1 nM biotinylated Avi-POLΘ[2-894]
T1 sequence (O75417 2-894 limits assumed): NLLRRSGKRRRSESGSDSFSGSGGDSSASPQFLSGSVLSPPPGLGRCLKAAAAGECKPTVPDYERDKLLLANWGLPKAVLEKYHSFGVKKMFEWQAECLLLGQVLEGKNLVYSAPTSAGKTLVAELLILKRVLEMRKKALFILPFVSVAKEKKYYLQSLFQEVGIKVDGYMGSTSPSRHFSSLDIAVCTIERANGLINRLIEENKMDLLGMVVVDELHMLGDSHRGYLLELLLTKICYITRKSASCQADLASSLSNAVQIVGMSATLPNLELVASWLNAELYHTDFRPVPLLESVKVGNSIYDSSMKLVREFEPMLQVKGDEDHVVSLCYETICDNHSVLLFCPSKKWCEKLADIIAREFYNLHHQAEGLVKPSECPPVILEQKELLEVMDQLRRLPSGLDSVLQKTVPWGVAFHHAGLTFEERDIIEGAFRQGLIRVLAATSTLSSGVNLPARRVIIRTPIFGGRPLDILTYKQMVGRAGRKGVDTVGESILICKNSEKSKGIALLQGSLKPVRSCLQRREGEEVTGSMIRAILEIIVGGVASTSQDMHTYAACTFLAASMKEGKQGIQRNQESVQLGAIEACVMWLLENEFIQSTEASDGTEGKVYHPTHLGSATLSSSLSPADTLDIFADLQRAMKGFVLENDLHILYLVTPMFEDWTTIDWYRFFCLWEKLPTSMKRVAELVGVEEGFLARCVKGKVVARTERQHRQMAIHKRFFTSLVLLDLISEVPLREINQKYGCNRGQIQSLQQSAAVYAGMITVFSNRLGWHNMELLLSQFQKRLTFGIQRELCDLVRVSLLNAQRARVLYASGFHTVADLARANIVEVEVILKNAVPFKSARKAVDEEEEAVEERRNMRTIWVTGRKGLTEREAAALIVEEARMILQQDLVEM

| IC50 [nM] | SMILES |
| --- | --- |
| 15 to 50 | COc1cnc(Cl)cc1-c1cc(C)ncc1C(=O)Nc1nc2ncc(N3CCO[C@H]4CCC[C@@H]43)nc2s1 [Example 393, 2′-chloro-N-(6-((4aS,7aS)-hexahydrocyclopenta[b][1,4]oxazin-4(4aH)-yl)thiazolo[4,5-b]pyrazin-2-yl)-5′-methoxy-6-methyl-[4,4′-bipyridine]-3-carboxamide] |
| 15 to 50 | COc1cnc(Cl)cc1-c1cc(C)ncc1C(=O)Nc1nc2ncc(N3CCO[C@@H]4CCC[C@@H]43)nc2s1 [Example 395, 2′-chloro-N-(6-((4aS,7aR)-hexahydrocyclopenta[b][1,4]oxazin-4(4aH)-yl)thiazolo[4,5-b]pyrazin-2-yl)-5′-methoxy-6-methyl-[4,4′-bipyridine]-3-carboxamide] |
| 15 to 50 | COc1cnc(Cl)cc1-c1cc(C)ncc1C(=O)Nc1nc2ncc(N3[C@H](C)COC[C@@H]3C)nc2s1 [Example 404, 2′-chloro-N-(6-((3R,5S)-3,5-dimethylmorpholino)thiazolo [4,5-b]pyrazin-2-yl)-5′-methoxy-6-methyl-[4,4′-bipyridine]-3-carboxamide] |
| 15 to 50 | COc1cnc(Cl)cc1-c1cc(C)ncc1C(=O)Nc1nc2ncc(N3CCOC[C@@H]3C(F)(F)F)nc2s1 [Example 414, (R)-2′-chloro-5′-methoxy-6-methyl-N-(6-(3-(trifluoromethyl)morpholino)thiazolo[4,5-b]pyrazin-2-yl)-[4,4′-bipyridine]-3-carboxamide] |
| 15 to 50 | COc1cnc(Cl)cc1-c1cc(C)ncc1C(=O)Nc1nc2ncc(N3CCOC[C@H]3C(F)(F)F)nc2s1 [Example 416, (S)-2′-chloro-5′-methoxy-6-methyl-N-(6-(3-(trifluoromethyl)morpholino)thiazolo[4,5-b]pyrazin-2-yl)-[4,4′-bipyridine]-3-carboxamide] |
| 1 to 15 | COc1cnc(Cl)cc1-c1cc(C)ncc1C(=O)Nc1nc2ncc(N3C[C@@H](C)OC[C@@H]3C)nc2s1 [Example 419, 2′-chloro-N-(6-((2R,5S)-2,5-dimethylmorpholino)thiazolo [4,5-b]pyrazin-2-yl)-5′-methoxy-6-methyl-[4,4′-bipyridine]-3-carboxamide] |
| 1 to 15 | COc1cnc(Cl)cc1-c1cc(C)ncc1C(=O)Nc1nc2ncc(N3[C@H](C)COC[C@H]3C)nc2s1 [Example 423, 2′-chloro-N-(6-((3R,5R)-3,5-dimethylmorpholino)thiazolo [4,5-b]pyrazin-2-yl)-5′-methoxy-6-methyl-[4,4′-bipyridine]-3-carboxamide] |
| 1 to 15 | COc1cnc(Cl)cc1-c1cc(C)ncc1C(=O)Nc1nc2ncc(N3CCOC(C)C3C)nc2s1 (stereo not drawn) [Example 425, 2′-chloro-N-(6-(2,3-dimethylmorpholino)thiazolo [4,5-b]pyrazin-2-yl)-5′-methoxy-6-methyl-[4,4′-bipyridine]-3-carboxamide] |
| 15 to 50 | COc1cnc(Cl)cc1-c1cc(C)ncc1C(=O)Nc1nc2ncc(N3CCOCC3C(F)F)nc2s1 (stereo not drawn) [Example 426, 2′-chloro-N-(6-(3-(difluoromethyl)morpholino)thiazolo[4,5-b]pyrazin-2-yl)-5′-methoxy-6-methyl-[4,4′-bipyridine]-3-carboxamide] |
| 1 to 15 | COc1cnc(Cl)cc1-c1cc(C)ncc1C(=O)Nc1nc2ncc(N3C[C@@H](C)O[C@@H](C)C3)nc2s1 [Example 437, 2′-chloro-N-(6-((2S,6R)-2,6-dimethylmorpholino)thiazolo [4,5-b]pyrazin-2-yl)-5′-methoxy-6-methyl-[4,4′-bipyridine]-3-carboxamide] |
| 1 to 15 | COc1cnc(Cl)cc1-c1cc(C)ncc1C(=O)Nc1nc2ncc([C@H]3CC[C@@H](C#N)CC3)nc2s1 [Example 451, 2′-chloro-N-(6-((1s,4s)-4-cyanocyclohexyl)thiazolo[4,5-b]pyrazin-2-yl)-5′-methoxy-6-methyl-[4,4′-bipyridine]-3-carboxamide] |
| 1 to 15 | COc1cnc(Cl)cc1-c1cc(C)ncc1C(=O)Nc1nc2ncc(N3CC[C@H](OC)[C@H](F)C3)nc2s1 [Example 453, 2′-chloro-N-(6-((3R,4S)-3-fluoro-4-methoxypiperidin-1-yl)thiazolo[4,5-b]pyrazin-2-yl)-5′-methoxy-6-methyl-[4,4′-bipyridine]-3-carboxamide] |
| 1 to 15 | COc1cnc(Cl)cc1-c1cc(C)ncc1C(=O)Nc1nc2ncc(N3CC[C@@H](OC)[C@H](F)C3)nc2s1 [Example 456, 2′-chloro-N-(6-((3R,4R)-3-fluoro-4-methoxypiperidin-1-yl)thiazolo[4,5-b]pyrazin-2-yl)-5′-methoxy-6-methyl-[4,4′-bipyridine]-3-carboxamide] |
| 1 to 15 | COc1cnc(Cl)cc1-c1cc(C)ncc1C(=O)Nc1nc2ncc(N3CCC(N(C)C)CC3)nc2s1 [Example 469, 2′-chloro-N-(6-(4-(dimethylamino)piperidin-1-yl)thiazolo[4,5-b]pyrazin-2-yl)-5′-methoxy-6-methyl-[4,4′-bipyridine]-3-carboxamide] |
| 15 to 50 | CNC1CCN(c2cnc3nc(NC(=O)c4cnc(C)cc4-c4cc(Cl)ncc4OC)sc3n2)CC1 [Example 477, 2′-chloro-5′-methoxy-6-methyl-N-(6-(4-(methylamino)piperidin-1-yl)thiazolo[4,5-b]pyrazin-2-yl)-[4,4′-bipyridine]-3-carboxamide] |
| 1 to 15 | COc1cnc(Cl)cc1-c1cc(C)ncc1C(=O)Nc1nc2ncc(N3CCCC3)nc2s1 [Example 484, 2′-chloro-5′-methoxy-6-methyl-N-(6-(pyrrolidin-1-yl)thiazolo[4,5-b]pyrazin-2-yl)-[4,4′-bipyridine]-3-carboxamide] |
| 50 to 150 | COc1cnc(Cl)cc1-c1cc(Oc2cc(N)cc(Cl)c2)ncc1C(=O)Nc1nn2cc(C3CC3)nc2s1 [Example 493, 6-(3-amino-5-chlorophenoxy)-2′-chloro-N-(6-cyclopropylimidazo[2,1-b][1,3,4]thiadiazol-2-yl)-5′-methoxy-[4,4′-bipyridine]-3-carboxamide] |
| 15 to 50 | COc1cnc(Cl)cc1-c1cc(Oc2cccc(N)c2)ncc1C(=O)Nc1nn2cc(C3CC3)nc2s1 [Example 494, 6-(3-aminophenoxy)-2′-chloro-N-(6-cyclopropylimidazo[2,1-b][1,3,4]thiadiazol-2-yl)-5′-methoxy-[4,4′-bipyridine]-3-carboxamide] |
| 150 to 900 | COc1cnc(Cl)cc1-c1cc(Oc2cccc(NC(=O)OC(C)(C)C)c2)ncc1C(=O)Nc1nn2cc(C3CC3)nc2s1 [Example 495, tert-butyl (3-((2′-chloro-5-((6-cyclopropylimidazo[2,1-b][1,3,4]thiadiazol-2-yl)carbamoyl)-5′-methoxy-[4,4′-bipyridin]-2-yl)oxy)phenyl)carbamate] |
| 15 to 50 | COc1cnc(Cl)cc1-c1cc(C)ncc1C(=O)Nc1nc2ncc(N3CC[C@H](CO)C3)nc2s1 [Example 500, (S)-2′-chloro-N-(6-(3-(hydroxymethyl)pyrrolidin-1-yl)thiazolo[4,5-b]pyrazin-2-yl)-5′-methoxy-6-methyl-[4,4'-bipyridine]-3-carboxamide] |
| 1 to 15 | COc1cnc(Cl)cc1-c1cc(C)ncc1C(=O)Nc1nc2ncc(N3CC[C@@H](CO)C3)nc2s1 [Example 501, (R)-2′-chloro-N-(6-(3-(hydroxymethyl)pyrrolidin-1-yl)thiazolo[4,5-b]pyrazin-2-yl)-5′-methoxy-6-methyl-[4,4′-bipyridine]-3-carboxamide] |
